Experiments:
Lin28B CSD+ZKD = target: T1, Lin28B CSD+ZKD (Homo sapiens, UniProt Q6ZN17); test: Fluorescence polarization (FP) assay, Lin28 CSD+ZKD with FAM-labeled Let-7 probe; assay type: binding; details: 20 uM compound; for inhibition at 20 µM: read-out: inhibition of FP signals
T1 construct: Lin28B CSD+ZKD (aa7-204); His-tag; made in house; host or cells: Escherichia coli BL21
T1 sequence (Q6ZN17 7-204): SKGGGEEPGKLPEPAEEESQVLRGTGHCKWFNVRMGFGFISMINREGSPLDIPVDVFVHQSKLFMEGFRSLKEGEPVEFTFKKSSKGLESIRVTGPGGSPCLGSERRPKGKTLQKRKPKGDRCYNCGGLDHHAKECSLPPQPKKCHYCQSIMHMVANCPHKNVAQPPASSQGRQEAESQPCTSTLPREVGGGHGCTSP
Excerpt: ZINC compounds were purchased from Enamine (Kyiv, Ukraine), Life Chemicals Ltd. (Kyiv, Ukraine), or Princeton Biomolecular Research (Princeton, NJ, USA) with >90% purity. Upon receiving the compounds, the molecular masses were validated by LC/MS/MS. His-tagged human Lin28B ZKD (aa110-174), Lin28B CSD+ZKD (aa7-204), and Lin28A ZKD (aa121-187) were expressed in Escherichia coli BL21 cells and purified by immobilized metal ion affinity chromatography (IMAC) with nickel nitrilotriacetic acid (NiNTA) resin and size exclusion chromatography (s75 10/300 GL) as we have previously reported.
The fluorescein amidites (FAM)-tagged Let-7 probe with the sequence of […] was purchased from Integrated DNA Technologies (IDT). The probe at the concentrations ranging from 1 nM to 50 uM was incubated with Lin28B (ZKD) or Lin28 (CSD+ZKD) to a final volume of 30 uL at room temperature for 20 min. To read the fluorescence, a TECAN 500 machine was used. Fluorescence polarization was calculated using the following equation: P=Fparrallel−Fperpendicular/Fparrallel+Fperpendicular where P is the fluorescence polarization reading, F parallel is the fluorescence intensity acquired from the parallel excitation plane, and F perpendicular is the fluorescence intensity acquired from the perpendicular direction of the excitation plane. The total fluorescence intensity is estimated using the following equation: F=Fparallel+2Fperpendicular
All the raw FP signal data from the TECAN 500 FP results were analyzed using Prism 8.0 (GraphPad, San Diego, CA, USA); normalized curves were plotted and IC50 values were estimated. All FP data were repeated three to five times.
To test the predicted compounds by CADD, we established an FP assay using both Lin28B ZKD and Lin28B CSD+ZKD to be incubated with a FAM-labeled Let-7 oligo containing the GGAG motif. To validate that the signals obtained from FP assays reflect the interaction between Lin28 and Let-7, we have tested: (1) 1 nM–50 uM FAM-labeled Let-7 probes with 10 uM Lin28 proteins and observed a dose-dependent reduction of FP signal; (2) 1 nM FAM labeled Let-7 probes with 1 nM–50 uM Lin28 proteins and observed a dose-dependent increase of FP signal; (3) 1 nM–50 uM doses of non-labeled Let-7 oligo to be incubated with 1 nM FAM probe and 10 uM Lin28 proteins, and observed a dose-dependent reduction of FP signal (Figure 2A,B).
We then screened all 163 molecules predicted by the CADD pipeline by using the FP assays with 10 uM of Lin28B ZKD protein and 1 nM of FAM-labeled Let-7 probe. Compounds Li71 and 1632 were also included and served as positive controls. We used 60% inhibition of FP signals by 20 uM of the tested compounds as the cut-off and found 15 active compounds achieving a hit rate of 9% (15/163) (Figure 2C left). […]

Lin28B ZKD = target: T2, Lin28B ZKD (Homo sapiens, UniProt Q6ZN17); test: EMSA, Lin28B ZKD–Let-7 complex; assay type: binding; details: compounds 0–1200 uM
T2 construct: His-tagged human Lin28B ZKD (aa110-174); His-tag; made in house; host or cells: Escherichia coli BL21
T2 sequence (Q6ZN17 110-174): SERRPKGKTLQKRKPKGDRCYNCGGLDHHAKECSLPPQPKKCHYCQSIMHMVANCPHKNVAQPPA
Description: EMSA followed the standard protocols we published with minor modifications. An IRDye800CWN-labeled Let-7 RNA probe was purchased from IDT (Coralville, IA, USA). Lin28B or Lin28A proteins were incubated with […] of probe in a standard 20 uL EMSA reaction in a reaction buffer containing 20 mM HEPES-NaOH, pH 7.4, 2 mM DTT, 3 mM MgCl2, 0.05% NP-40, protease inhibitors, and 0.1 ug poly[dI:dC]. After incubation for 30 min at 37 °C, reactions were loaded onto 4% non-denatured polyacrylamide gel in 0.5× TBE buffer. The RNA oligo bands were visualized by using the Li-Cor Odyssey 9120 Infrared Imaging System.
Figure 3 Lin28 inhibitors block the interaction between Lin28B ZKD and Let-7. (A) EMSA used 10 nM of IR800DyeCWN-labeled let-7 probe (lane 1), 0.5 uM Lin28B ZKD protein with 10 nM of labeled Let-7 probe (lane 2), or Lin28B ZKD, labeled Let-7 probe and 100× non-labelled competitor probe (lane 3). EMSA used Lin28B ZKD, labeled Let-7 probe, and 100–1200 uM of indicated compounds (lanes 4–10). (B) FP assays were performed by using 10 uM of Lin28B ZKD and 1 nM of FAM-labeled Let-7 probe and 1 nM–1000 uM of compounds. (C) Bio-layer interferometry (BLI) assays were performed using 0–25 uM of Ln115 with Avi-tagged Lin28B ZKD protein. (D) Chemical structures of the three lead compounds were shown.

CCOc1cccc2c1N[C@@H](c1ccc(C(=O)O)cc1)[C@H]1CC=C[C@@H]21 [Li71, reference compound]
inhibition of FP signals (Lin28B CSD+ZKD): ~ 30% | inhibition of ZKD–Let-7 complex in EMSA (Lin28B ZKD): robust inhibition

CCc1cc(=O)[nH]c(Nc2cc(Cl)ccc2O)n1 [Ln7]
inhibition at 20 µM (Lin28B CSD+ZKD): ~50% | concentration that disrupts ZKD–Let-7 complex in EMSA (Lin28B ZKD): > 1000 µM

O=c1[nH]c(Nc2ccccc2O)cs1 [Ln15]
inhibition at 20 µM (Lin28B CSD+ZKD): ~50% | concentration that disrupts ZKD–Let-7 complex in EMSA (Lin28B ZKD): 400 µM

O=c1cccc(-c2nc3cc(F)c(O)cc3c(=O)[nH]2)[nH]1 [Ln115]
inhibition at 20 µM (Lin28B CSD+ZKD): ~20%
